# Reference: article PMC4014116, “Hitting the target: fragment screening with acoustic in situ co-crystallization of proteins plus fragment libraries on pin-mounted data-collection micromeshes” (Acta Crystallographica Section D: Biological Crystallography, 2014)
# How the values were obtained:
# [1] = target: T1, stachydrine demethylase (Sinorhizobium meliloti, UniProt Q92ZP9); conditions: 2.3 A; pH 7 HEPES; 25 mM hexaamine CoCl2
# T1 construct: gene stc2
# [2] = target: T2, lysozyme (Gallus gallus, UniProt P00698); assay: X-ray structure of co-crystal (fragment screen); format: binding; conditions: pH 4.6 acetate, 4% NaCl
# T2 construct: gene LYZ
# [3] = target: T1, stachydrine demethylase; assay: X-ray structure of co-crystal; demethylated product seen; format: binding; conditions: 2.3 A; pH 7 HEPES; 25 mM hexaamine CoCl2; N-methyl group cleaved on X-ray exposure, only L-proline in the density
# [4] = target: T3, trypsin (Bos taurus, UniProt P00760); assay: X-ray structure of co-crystal (fragment screen); format: binding; conditions: pH 7 HEPES, 10 mM CaCl2
# T3 construct: gene PRSS1
# T3 sequence (P00760 24-246): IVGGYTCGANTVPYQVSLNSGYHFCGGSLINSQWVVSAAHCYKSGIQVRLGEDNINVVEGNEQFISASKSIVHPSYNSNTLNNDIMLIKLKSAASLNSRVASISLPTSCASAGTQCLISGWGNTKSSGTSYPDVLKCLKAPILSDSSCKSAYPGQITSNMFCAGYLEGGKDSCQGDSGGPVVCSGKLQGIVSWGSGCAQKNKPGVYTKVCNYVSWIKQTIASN
compound,measurement,setting,value
O=C(O)[C@@H]1CCCN1 [L-proline],X-ray structure of co-crystal,[1],"When L-proline was co-crystallized with stachydrine demethylase, the L-proline was observed in the electron density"
CC(=O)N[C@H]1C(O)O[C@H](CO)[C@@H](O)[C@@H]1O (stereo partly drawn) [N-acetylglucosamine],X-ray structure of co-crystal (fragment screen),[2],The known N-acetylglucosamine ligand was easily identified in the electron density
CN1CCC[C@H]1C(=O)O [N-methylproline],X-ray structure of co-crystal; demethylated product seen,[3],"exposure to X-rays quickly induces enzymatic cleavage of the N-methyl group, leaving behind L-proline"
N=C(N)c1ccccc1 [benzamidine],X-ray structure of co-crystal (fragment screen),[4]; known control,the known benzamidine ligand in the best diffracting no-hit screen
same,X-ray structure of co-crystal (fragment screen),[2],"Benzamidine was also observed to bind to lysozyme, a previously unreported result (PDB entry 4n8z)"
c1c[nH]cn1 [imidazole],X-ray structure of co-crystal (fragment screen),"[4]; 10 mg/ml benzamidine present, allosteric site distant from the active site",imidazole (a previously unreported allosteric binding mode that is distant from the active site; PDB entry 4ncy)
